Reference: the supplement of paper PMC8149375

Key:
Settings in all cases: treatment: drug + dasatinib (fixed dose, not stated); 5 days
769-P [1] = assay: GI50 of drug in presence of dasatinib; higher = less potent
Procedure: (§1)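 Primary HTS combination arm: 8 RCC cell lines treated with 8 doses (up to 10 uM) of each library drug plus a fixed dose of dasatinib (dose not stated) for 5 days; viability read by CellTiter-Glo and normalised to DMSO. GI50 was fitted with XLfit, AUC is the area under the dose-response curve, and minimum viability is the lowest fraction of DMSO viability across doses.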

786-O [2] = assay: as above
Procedure: as §1

A498 [3] = assay: as above
Procedure: as §1

ACHN [4] = assay: as above
Procedure: as §1

CAKI-1 [5] = assay: as above
Procedure: as §1

SN12C [6] = assay: as above
Procedure: as §1

TK-10 [7] = assay: as above
Procedure: as §1

UO-31 [8] = assay: as above
Procedure: as §1

769-P [9] = assay: minimum viability across doses, drug + dasatinib, relative to DMSO (fraction); higher = less growth inhibition
Procedure: as §1

786-O [10] = assay: as above
Procedure: as §1

A498 [11] = assay: as above
Procedure: as §1

ACHN [12] = assay: as above
Procedure: as §1

CAKI-1 [13] = assay: as above
Procedure: as §1

SN12C [14] = assay: as above
Procedure: as §1

TK-10 [15] = assay: as above
Procedure: as §1

UO-31 [16] = assay: as above
Procedure: as §1

769-P [17] = assay: AUC of dose-response viability curve, drug + dasatinib, normalised to DMSO (arbitrary (AUC of normalised viability)); higher = less growth inhibition
Procedure: as §1

786-O [18] = assay: as above
Procedure: as §1

A498 [19] = assay: as above
Procedure: as §1

ACHN [20] = assay: as above
Procedure: as §1

CAKI-1 [21] = assay: as above
Procedure: as §1

SN12C [22] = assay: as above
Procedure: as §1

TK-10 [23] = assay: as above
Procedure: as §1

UO-31 [24] = assay: as above
Procedure: as §1

Row | Structure (SMILES) | GI50 of drug (769-P [1]) [µM] | GI50 of drug (786-O [2]) [µM] | GI50 of drug (A498 [3]) [µM] | GI50 of drug (ACHN [4]) [µM] | GI50 of drug (CAKI-1 [5]) [µM] | GI50 of drug (SN12C [6]) [µM] | GI50 of drug (TK-10 [7]) [µM] | GI50 of drug (UO-31 [8]) [µM] | minimum viability across doses (769-P [9]) | minimum viability across doses (786-O [10]) | minimum viability across doses (A498 [11]) | minimum viability across doses (ACHN [12]) | minimum viability across doses (CAKI-1 [13]) | minimum viability across doses (SN12C [14]) | minimum viability across doses (TK-10 [15]) | minimum viability across doses (UO-31 [16]) | AUC of dose-response viability curve (769-P [17]) | AUC of dose-response viability curve (786-O [18]) | AUC of dose-response viability curve (A498 [19]) | AUC of dose-response viability curve (ACHN [20]) | AUC of dose-response viability curve (CAKI-1 [21]) | AUC of dose-response viability curve (SN12C [22]) | AUC of dose-response viability curve (TK-10 [23]) | AUC of dose-response viability curve (UO-31 [24])
1 | CCCCCCCCCCCCc1ccc(S(=O)(=O)Nc2nncs2)cc1 [PHT-427] + Cc1nc(Nc2ncc(C(=O)Nc3c(C)cccc3Cl)s2)cc(N2CCN(CCO)CC2)n1 [dasatinib] | > 10 | 4.87 | > 10 | > 10 | > 10 | > 10 | > 10 | > 10 | 0.631 | 0.455 | 0.912 | 0.47 | 0.656 | 0.691 | 0.67 | 1.13 | 2.43 | 1.91 | 3.58 | 1.87 | 2.43 | 2.53 | 2.53 | 4.28
2 | Oc1cccc(-c2nc(N3CCOCC3)c3oc4ncccc4c3n2)c1 [PI-103] + Cc1nc(Nc2ncc(C(=O)Nc3c(C)cccc3Cl)s2)cc(N2CCN(CCO)CC2)n1 [dasatinib] | 0.461 | 0.0731 | 0.386 | 0.0314 | 0.322 | 0.156 | 0.389 | 0.115 | 0.0372 | 0.0069 | 0.111 | 0.0522 | 0.0121 | 0.116 | 0.0871 | 0.00638 | 1.84 | 1.43 | 2.06 | 1.2 | 1.63 | 1.57 | 1.86 | 1.49
3 | Cc1ccc([N+](=O)[O-])cc1S(=O)(=O)N(C)/N=C/c1cnc2ccc(Br)cn12.Cl [PIK-75] + Cc1nc(Nc2ncc(C(=O)Nc3c(C)cccc3Cl)s2)cc(N2CCN(CCO)CC2)n1 [dasatinib] | 0.0476 | 0.0303 | 0.0656 | 0.00783 | 0.0078 | 0.0577 | 0.0451 | 0.043 | 0.00622 | 0.00381 | 0.00818 | 0.00364 | 0.0337 | 0.00539 | 0.124 | 0.00696 | 1.11 | 0.918 | 1.29 | 0.571 | 0.683 | 1.07 | 1.4 | 1.22
4 | CC(=O)Nc1nc(C)c(-c2ccc(Cl)c(S(=O)(=O)NCCO)c2)s1 [PIK-93] + Cc1nc(Nc2ncc(C(=O)Nc3c(C)cccc3Cl)s2)cc(N2CCN(CCO)CC2)n1 [dasatinib] | 4 | 0.135 | 8.11 | 0.976 | 1.17 | 1.89 | 3.69 | 4.32 | 0.352 | 0.127 | 0.476 | 0.188 | 0.068 | 0.259 | 0.251 | 0.0793 | 2.31 | 1.49 | 3.29 | 1.75 | 2.05 | 2.14 | 2.31 | 3.76
5 | Cc1ccccc1-n1c(Cn2ncc3c(N)ncnc32)nc2cccc(C)c2c1=O [PIK-293] + Cc1nc(Nc2ncc(C(=O)Nc3c(C)cccc3Cl)s2)cc(N2CCN(CCO)CC2)n1 [dasatinib] | > 10 | > 10 | > 10 | 2.54 | > 10 | > 10 | > 10 | > 10 | 0.685 | 0.6 | 0.782 | 0.539 | 0.655 | 0.666 | 0.66 | 1.15 | 2.55 | 2.24 | 3.17 | 2.17 | 2.38 | 2.43 | 2.47 | 4.4
6 | CCn1nnc2c(N3CCOCC3)nc(-c3ccc(NC(=O)Nc4ccc(C(=O)N5CCN(C)CC5)cc4)cc3)nc21 [PKI-402] + Cc1nc(Nc2ncc(C(=O)Nc3c(C)cccc3Cl)s2)cc(N2CCN(CCO)CC2)n1 [dasatinib] | 0.45 | 0.098 | 0.0875 | 0.0828 | 0.122 | 0.0416 | 0.117 | 0.35 | 0.0547 | 0.00332 | 0.148 | 0.0465 | 0.0314 | 0.0929 | 0.0238 | 0.00734 | 1.86 | 1.41 | 1.66 | 1.25 | 1.48 | 1.19 | 1.55 | 2.39
7 | CCCS(=O)(=O)Nc1ccc(F)c(C(=O)c2c[nH]c3ncc(Cl)cc23)c1F [PLX-4720] + Cc1nc(Nc2ncc(C(=O)Nc3c(C)cccc3Cl)s2)cc(N2CCN(CCO)CC2)n1 [dasatinib] | > 10 | 2.74 | > 10 | 1.07 | 1.7 | > 10 | 5.47 | > 10 | 0.641 | 0.212 | 0.765 | 0.127 | 0.0731 | 0.679 | 0.361 | 0.806 | 2.48 | 2.13 | 3 | 1.93 | 2.08 | 2.47 | 2.44 | 3.22
